# Experimental data taken from patent US6201116A, “Halide indicators” (The Regents of the University of California, priority 1999, dated 2001).
# Assays:
# [1] = In vitro fluorescence quenching by I^- (Stern-Volmer); assay type: physicochemical; details: Table 4
# Method: Computations. In vitro fluorescence quenching studies were carried out at peak excitation and emission wavelengths. Microliter aliquots of the sodium salt of the quenching anion (1 M) were added to indicator solution in 5 mM sodium phosphate (pH 7.2, unless indicated otherwise). Fluorescence intensities in the absence (Fo) and presence (F) of quencher anion ([Q]) were measured to give the Stem-Volmer constant (Kq) as defined by: Fo /F=1+Kq [Q].
# [2] = Fluorescence spectra / optical properties; assay type: physicochemical; design: key to Brightness: ++++: very bright; +++: bright; ++: moderate brightness; +: weak; details: for Brightness / λem (emission wavelength) / λex (excitation wavelength): Table 4
# Method: Computations. In vitro fluorescence quenching studies were carried out at peak excitation and emission wavelengths. Microliter aliquots of the sodium salt of the quenching anion (1 M) were added to indicator solution in 5 mM sodium phosphate (pH 7.2, unless indicated otherwise). Fluorescence intensities in the absence (Fo) and presence (F) of quencher anion ([Q]) were measured to give the Stem-Volmer constant (Kq) as defined by:
# Fluorescence spectra reveal that LZQ and LMQ have broad excitation and emission peaks with maxima at 424 and 528 nm, respectively. The molar extinction coefficient of LZQ was 11,100 M^-1 cm^-1 at 424 nm and the quantum yield in the absence of I^- was 0.53. Stem-Volmer plots for quenching of LZQ and LMQ by I^- and Cl^-, with data for SPQ shown for comparison, were generated. In water (or saline), LZQ fluorescence was quenched by I^- with a Stem-Volmer constant of 60 M^-1. LZQ fluorescence was not quenched (Stem-Volmer constant <1 M^-1) by Cl^-, NO3^-, phosphate, acetate, Na^+ and K^+. LZQ fluorescence and I^- sensitivity were not affected by pH changes in the range 4.5-8.
# CFTR = details: cited from earlier work; for correction of CF phenotype (chemical chaperones): Swiss 3T3, Brown et al., 1996
# cells [3] = experiment: Toxicity in assays of cell growth; assay type: cell-based; details: 2 mM in culture medium for 72 h
# Method: (§1) LZQ and LMQ were loaded into cells efficiently by hypotonic shock or passive incubation. […] As was found for SPQ, LZQ and LMQ were non-toxic to cells in assays of cell growth (2 mM in culture medium for 72 h).
# cells [4] = experiment: Indicator leakage / cytoplasmic retention; assay type: cell-based; details: Table 4
# Method: (§2) Fluorescence microscopy. Fluorescence microscopy measurements were performed as described previously (Chao et al., 1989). Briefly, coverglasses were mounted in a 0.5 ml perfusion chamber in which the cell-free glass surface made contact with an oil immersion objective (Nikon ×40 magnification, numerical aperture[NA] 1.3). Cell fluorescence was excited at 365±10 nm (SPQ) or 420 nm±10 nm (LZQ and LMQ). Emitted fluorescence was detected by a photomultiplier in a Nikon inverted epifluorescence microscope using a 410 nm dichroic mirror and 420 nm barrier filter (SPQ) or a 455 nm dichroic mirror and 500 nm barrier filter (LZQ). For cells colabeled with SPQ and LZQ, SPQ fluorescence was excited at 365±10 nm and detected using a 410 nm dichroic mirror and 455±30 nm interference filter. Confocal fluorescence micrographs were obtained using a Nipkow wheel confocal microscope and cooled CCD camera detector using a ×60 oil immersion objective (Nikon, NA 1.4). LZQ-labeled cells were viewed using a fluorescein filter set (excitation 480±15 nm, emission 520±20 nm).
# (§3) A time course of LZQ fluorescence during perfusion with physiological saline at 23° C. was generated. A small group of 20-30 cells was illuminated continuously and fluorescence was detected by a photomultiplier using an ×40, 1.3 NA objective. Cellular fluorescence decreased slowly at a rate of 2.5% per hour. To determine the relative contributions of indicator leakage vs. photobleaching to the slow decline in fluorescence, the perfused cells were illuminated intermittently. […] Background fluorescence (in non-labeled cells) was generally <5% of the fluorescence of LZQ-labeled cells.
# cells [5] = experiment: Cell loading and intracellular distribution (fluorescence/confocal microscopy); assay type: cell-based; details: for Cellular properties: staining/distribution: Table 4
# Method: as §2
# Transport measurements. Cells were labeled with LZQ or SPQ by hypotonic shock (loading buffer/water 1:1 containing 2 mM LZQ or 7.5 mM SPQ) for 5 min at room temperature or by overnight incubation with indicators in the cell culture medium. Extracellular indicator was removed by washing just prior to measurements. For fluorescence microscopy, glass coverslips were then mounted in a perfusion chamber (flow ~2 ml/min) in which solutions were exchanged using a 4-way valve. For microplate reader measurements, cells in 96-well plates were bathed in […] of the `1st buffer` (see Table 3) and […] of the Cl^- -containing, I^- -free solution was injected into the well to drive Cl^- /I^- exchange (protocol 1). For stimulation of CFTR using protocol 2, […] of a 1:8 mixture of the 1st buffer and the 2nd buffer containing […] forskolin, 2 mM CPT-cAMP and […] IBMX was added.
# as §1
# cells [6] = experiment: Photobleaching in cells; assay type: cell-based; details: Table 4
# Method: as §2, §3
# cells [7] = experiment: Response of intracellular fluorescence to osmotically-induced changes in cell volume; assay type: cell-based
# Method: as §2
# The similar LZQ lifetime in cells and water predicts that LZQ fluorescence should be relatively insensitive to cell volume in the absence of I^-. […] When cells were exposed to hypoosmotic medium (225 mOsm), SPQ fluorescence increased by 15±2%, whereas LZQ fluorescence increased by only 4±1%.
# control fibroblasts = experiment: Cl^-/I^- exchange by LZQ fluorescence, control cells; assay type: cell-based; details: solution Cl^- replaced by I^-
# Method: as §2, with “LZQ-labeled cells were viewed using a fluorescein filter set (excitation 480±15 nm, emission 520±20 nm).” left out
# (§4) Transport measurements. […] For fluorescence microscopy, glass coverslips were then mounted in a perfusion chamber (flow ~2 ml/min) in which solutions were exchanged using a 4-way valve. For microplate reader measurements, cells in 96-well plates were bathed in […] of the `1st buffer` (see Table 3) and […] of the Cl^- -containing, I^- -free solution was injected into the well to drive Cl^- /I^- exchange (protocol 1). […]
# [8] = system: CFTR-expressing fibroblasts and T84 cells; experiment: Cl^-/I^- exchange by LZQ fluorescence, CFTR-expressing cells; assay type: cell-based; details: solution Cl^- replaced by I^-
# Method: as §2, with “LZQ-labeled cells were viewed using a fluorescein filter set (excitation 480±15 nm, emission 520±20 nm).” left out
# as §4
Compound,"Ksv (I^-), Stern Volmer quenching constant [1]",Brightness [2],λem (emission wavelength) [2],λex (excitation wavelength) [2],other results
"C[n+]1c(-c2ccccc2)ccc2cc3ccc(-c4ccccc4)nc3cc21 [Compound VII, 1-methyl-2,7-diphenylpyrido-[3,2,g]quinolinium]",46 M⁻¹,+++,515 nm,405 nm,
[2H]O[2H] [D2 O],,,,,correction of CF phenotype (chemical chaperones) (CFTR): corrected the CF phenotype
NCCCNCCCCNC(=O)C(O)NC(=O)CCCCCCN=C(N)N (centres unmarked) [Deoxyspergualin],,,,,"restoration of Cl transport (CFTR; C127-CFTR, JME/CF15, IBE-1, Jiang et al., 1998): partially restored"
"CC(C)Cn1c(=O)n(C)c(=O)c2[nH]cnc21 [IBMX, 3-isobutyl-1-methylxanthine]",,,,,"effect of increased [IBMX] on ΔF508 response (CFTR; L cells, Yang et al., 1993): improved"
"N=c1ccc2c(-c3ccccc3C(=O)O)c3ccc(N)cc3oc-2c1 [III, rhodamine-110, reference compound]",40 M⁻¹,++++,520 nm,496 nm,
Nc1ncnc2c1nc([O-])c1cccc[n+]12 [II],70 M⁻¹,+++,530 nm,424 nm,toxicity to cells (cell growth) (cells [3]): non-toxic; emission maximum [2]: 528 nm; excitation maximum [2]: 424 nm; Cellular properties: leakage rate (cells [4]): moderate; Cellular properties: staining/distribution (cells [5]): staining uniform; loading into cells (cells [5]; hypotonic shock or passive incubation): efficiently; Cellular properties: photobleaching (cells [6]): slow photobleaching
"Cc1cc2cc3cc(C)c(N)cc3[n+](C)c2cc1N [IX, 10-methyl acridinium yellow]",90 M⁻¹,++++,520 nm,440 nm,Cellular properties: photobleaching (cells [6]): very rapid
"COc1ccc2c(ccc[n+]2CCCS(=O)(=O)[O-])c1 [SPQ, 6-methoxy-N-[3-sulfopropyl]quinolinium, reference compound]",,,,,"toxicity to cells (cell growth) (cells [3]): non-toxic; fluorescence increase upon exposure to hypoosmotic medium (cells [7]; 225 mOsm): 15±2%; fluorescence decrease upon exposure to hyperosmotic medium (cells [7]; 600 mOsm, absence of Cl^-, S.E., n=3): 30±2%"
C[N+](C)(C)[O-] [TMAO],,,,,correction of CF phenotype (chemical chaperones) (CFTR): corrected the CF phenotype
"O=c1ccc2nc3ccc(O)cc3oc-2c1 [VIII, resorufin, reference compound]",76 M⁻¹,+++,585 nm,571 nm,
"CN(C)c1ccc2cc3ccc(N(C)C)cc3[n+](C)c2c1 [X, 10-methyl acridinium orange]",30 M⁻¹,++++,550 nm,440 nm,Cellular properties: photobleaching (cells [6]): very rapid
"Nc1c2ccccc2[n+](CCCS(=O)(=O)[O-])c2ccccc12 [XII, 9-amino-10-(3-sulfopropys) acridinium]",253 M⁻¹,+++,457 nm,422 nm,Cellular properties: staining/distribution (cells [5]): nuclear staining; Cellular properties: photobleaching (cells [6]): rapid
"Nc1ccc2nc3ccc(N)cc3[n+](-c3ccccc3)c2c1 [XIII, phenosafranine, reference compound]",33 M⁻¹,++,586 nm,520 nm,
C=C[C@@]1(C)CC(=O)[C@]2(O)[C@@]3(C)[C@@H](O)CCC(C)(C)[C@@H]3[C@H](O)[C@H](OC(C)=O)[C@@]2(C)O1 [forskolin],,,,,"forskolin-stimulated decrease in LZQ fluorescence, control (control fibroblasts): not in control fibroblasts; forskolin-stimulated change in LZQ fluorescence [8]: rapid decrease in LZQ fluorescence"
OCC(O)CO [glycerol],,,,,correction of CF phenotype (chemical chaperones) (CFTR): corrected the CF phenotype
CCCC(=O)[O-].[Na+] [sodium butyrate],,,,,"Cl transport, overexpression of ΔF508 (CFTR; CFPAC-1, JME/CF15, 1° culture, Cheng et al., 1995): resulted in detectable Cl"
CFTR protein: purified CFTR protein,,,,,"Cl transport after transfer of purified protein (CFTR; CHO-CFTR, FRT-CFTR, LLCPK1, Marshall et al., 1994): induced Cl transport"
"rhodamine green [IV, reference compound]",30 M⁻¹,++++,530 nm,505 nm,
